Test results from patent US4859468A, “Compositions and method for decomposing adipose tissue” (Senju Pharmaceutical Co., Ltd., priority 1985, dated 1989).

Test system: free fat cell
Test: Activity on the adrenaline's decomposing action on free fat cell (free fatty acid liberation with adrenaline)
Format: cell-based, male Wister rat
Details: adrenaline 0.5 μg/ml alone
Description: Eight grams of fat tissue at epididymis of male Wister rat (body weight 150-200 g) was sliced and was added into 20 ml of a Krebs-Ringer phosphoric acid buffer solution (pH 7.4) (hereinafter referred to as KRP buffer solution) containing 20 mg of glucose, 4% of bovine serum albumin and 20 mg of collagenase. The mixture was incubated at 37° C. for 50 min, and after filtration with nylon mesh, was centrifuged at 500 rpm for 30 sec; then, any portion that was not the fat cell layer was sucked out. The fat cell layer was washed twice with the KRP buffer solution and then diluted to 20 ml by addition of the KRP buffer solution. To 0.25 ml of this suspension, 0.5 ml of KRP buffer solution containing 5% of bovine serum albumin and 0.1 ml of the liquids to be tested or KRP buffer solution as control were added; these mixtures were incubated at 37° C. for 2 hr and the freed fatty acids were assayed by Dole's method (V. P. Dole, J. Clin. Invest., 35, 150 (1956)).

For `CNCC(O)c1ccc(O)c(O)c1` (stereo not shown) [adrenaline], the “action of adrenaline on free fat cell (in words)” value was “free fatty acid is freed”.
